Reference: PubChem BioAssay (NCI)
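Growth conditions: 96-well plates. Treatment: test compound, 48 hours, 5 concentrations. Analysis: linear interpolation between bracketing concentrations; unreached endpoints set to highest concentration. GI50 is the concentration that inhibits growth by half. TGI marks complete inhibition of growth.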

Tests used:
Assay in all cases: NCI tumour cell line growth inhibition, 48 h
SK-OV-3 ovarian = test system: SK-OV-3 ovarian
SF-539 CNS = test system: SF-539 CNS
TK-10 renal = test system: TK-10 renal
IGROV1 ovarian = test system: IGROV1 ovarian
T-47D breast = test system: T-47D breast
DU-145 prostate = test system: DU-145 prostate
SNB-75 CNS = test system: SNB-75 CNS
786-0 renal = test system: 786-0 renal
NCI-H522 lung = test system: NCI-H522 lung
COLO 205 colon = test system: COLO 205 colon

Row | Structure (SMILES) | TGI (SK-OV-3 ovarian) | TGI (SF-539 CNS) | TGI (TK-10 renal) | TGI (IGROV1 ovarian) | TGI (T-47D breast) | TGI (DU-145 prostate) | TGI (SNB-75 CNS) | TGI (786-0 renal) | TGI (NCI-H522 lung) | TGI (COLO 205 colon) | GI50 (SK-OV-3 ovarian) | GI50 (SF-539 CNS) | GI50 (TK-10 renal) | GI50 (IGROV1 ovarian) | GI50 (T-47D breast) | GI50 (DU-145 prostate) | GI50 (SNB-75 CNS) | GI50 (NCI-H522 lung) | GI50 (COLO 205 colon)
1 | O=C1C(Cl)=C(N2CCN(c3ccccn3)CC2)C(=O)c2ncccc21 | 20.6 µM | 3.94 µM | 9.75 µM | 6.63 µM | 3.16 µM | 24.1 µM | 19.8 µM | 3.12 µM | 2.83 µM | 3.31 µM |  |  |  |  |  |  |  |  | 
2 | COc1ccc(Nc2nc3ccccc3nc2C(=O)O)cc1OC | > 100 µM | > 100 µM | > 100 µM | > 100 µM | > 100 µM | > 100 µM | > 100 µM | > 100 µM | > 100 µM | > 100 µM |  |  |  |  |  |  |  |  | 
3 | C[N+](C)([O-])Cc1cc(-c2ccccc2)ccc1O |  |  | > 100 µM | > 100 µM | > 100 µM | > 100 µM | > 100 µM | > 100 µM | > 100 µM |  |  |  |  |  |  |  |  |  | 
4 | O=C(N/N=C(/COc1cccc(Cl)c1)N=Cc1cccnc1)c1ccncc1 | > 100 µM | > 100 µM | > 100 µM | > 100 µM | > 100 µM | > 100 µM | > 100 µM | > 100 µM | > 100 µM | > 100 µM |  |  |  |  |  |  |  |  | 
5 | Cn1c(-c2ccc(N=NNc3ccc(-c4n[nH]c(=S)n4C)cc3)cc2)n[nH]c1=S | 54.9 µM |  | > 100 µM | 46.4 µM | 8.28 µM | 30.6 µM | 35.1 µM | > 100 µM | > 100 µM | > 100 µM |  |  |  |  |  |  |  |  | 
6 | COC(=O)c1c(C(=O)OC)c2c3ccccc3n(C)c2c2c1c1ccccc1n2C | > 100 µM | > 100 µM | > 100 µM | > 100 µM | > 100 µM | > 100 µM | > 100 µM | > 100 µM | > 100 µM | > 100 µM |  |  |  |  |  |  |  |  | 
7 | COc1ccc(/C=C2/CCS(=O)(=O)c3ccc(C)cc3C2=O)cc1OC | > 100 µM | > 100 µM | 37.5 µM | 22.4 µM | 45.1 µM | 15.1 µM | 57.2 µM | 27.7 µM |  | 28.4 µM |  |  |  |  |  |  |  |  | 
8 | COc1ncnc2c1cnn2Cc1cn(CCCCO)nn1 | > 100 µM | > 100 µM | > 100 µM | > 100 µM | > 100 µM | > 100 µM |  | > 100 µM | > 100 µM | > 100 µM |  |  |  |  |  |  |  |  | 
9 | COc1ccc(-c2nc(-c3cnccn3)n(COCCO)n2)cc1 | > 100 µM | > 100 µM | > 100 µM | > 100 µM | > 100 µM | > 100 µM |  | > 100 µM | > 100 µM | > 100 µM |  |  |  |  |  |  |  |  | 
10 | O=C(O)Cn1c2c(c3c(O)cccc31)C(=O)c1ccccc1-2 | > 100 µM | > 100 µM | > 100 µM | > 100 µM | > 100 µM | > 100 µM | > 100 µM |  | > 100 µM | > 100 µM | > 100 µM | 5.62 µM | > 100 µM | > 100 µM | > 100 µM | 0.0519 µM | > 100 µM | > 100 µM | > 100 µM
